These results are taken from PubChem BioAssay (NCI).

Some test systems named below: HL-60(TB) leukemia; K-562 leukemia; MOLT-4 leukemia; SK-MEL-5 melanoma; UACC-257 melanoma; KM12 colon; PC-3 prostate; RXF 393 renal; NCI/ADR-RES ovarian; T-47D breast.
What all share (assay): NCI anticancer screen, dose series, 48 h

“And” between values parts separate entries of the source, which are not always exact repeats. Equal values may be shown once.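 A five-concentration, 48-hour dose response in 96-well plates underlies each endpoint, interpolated linearly between surrounding concentrations. At the GI50, growth is halved. TGI: concentration producing complete growth inhibition.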 Some results are limits rather than exact numbers.

As to `CCOC(=O)NC(=O)c1cn(CCCOC(=O)NCCCCCCNC(=O)OCCCn2cc(C(=O)NC(=O)OCC)c(=O)[nH]c2=O)c(=O)[nH]c1=O`, the TGI is 41.7 µM with HL-60(TB) leukemia; 39.8 µM in the assay on K-562 leukemia; 90.3 µM in the assay with MOLT-4 leukemia; over 100 µM in the assay on SK-MEL-5 melanoma; 37 µM in the assay with UACC-257 melanoma.

Consider `Oc1ccc(-c2cn3cc(Cl)sc3n2)cc1`, for which the GI50 is 36.7 µM with K-562 leukemia; 20.9 µM in the assay with KM12 colon; 16.5 µM in the assay with MOLT-4 leukemia; 15.9 µM in the assay on PC-3 prostate; over 100 µM with RXF 393 renal; 29.8 µM in the assay with SK-MEL-5 melanoma. Further, the GI50 in the assay with UACC-257 melanoma was 46.2 µM. The TGI in the assay on K-562 leukemia is over 100 µM; with KM12 colon, 74.1 µM; in the assay on MOLT-4 leukemia, 34.3 µM; with PC-3 prostate, 46.8 µM; in the assay with RXF 393 renal it was over 100 µM; in the assay with SK-MEL-5 melanoma, 78.1 µM. Further, in the assay with UACC-257 melanoma, the TGI is over 100 µM.

Turning to `COc1cc(-n2cnc(-c3ccc(Cl)cc3)c2)cc(OC)c1OC`, the GI50 with HL-60(TB) leukemia is 15.3 µM; with K-562 leukemia it was 7.33 µM; with KM12 colon, over 100 µM; with MOLT-4 leukemia, 19.2 µM; in the assay on NCI/ADR-RES ovarian, 16.9 µM; in the assay on PC-3 prostate, 12.7 µM. For the same compound, the GI50 in the assay on SK-MEL-5 melanoma is 67.8 µM; with UACC-257 melanoma, 18.3 µM. Moreover, the TGI in the assay with HL-60(TB) leukemia was 35.4 µM; in the assay on K-562 leukemia it was 29.5 µM; in the assay with KM12 colon, over 100 µM; in the assay on MOLT-4 leukemia it was 39.9 µM; in the assay on NCI/ADR-RES ovarian it was 45.1 µM; in the assay on PC-3 prostate it was 31.7 µM. Further, the TGI is over 100 µM in the assay on SK-MEL-5 melanoma and 34.1 µM with UACC-257 melanoma.

Regarding `CCOC(=O)C(=O)Nc1c(C)cccc1C(C)C`, the TGI with HL-60(TB) leukemia, with K-562 leukemia, with KM12 colon, with MOLT-4 leukemia, in the assay on SK-MEL-5 melanoma and in the assay on UACC-257 melanoma was over 100 µM throughout.

In the case of `COc1ccc(C(=O)CC(=O)C(=O)Nc2ccc(C)c(C)c2)cc1`, the TGI with HL-60(TB) leukemia is over 64.3 µM; with K-562 leukemia it was over 87 µM; with KM12 colon it was over 100 µM; with MOLT-4 leukemia, over 100 µM; in the assay on RXF 393 renal, 97.9 µM; in the assay with SK-MEL-5 melanoma, over 100 µM. This compound had a TGI in the assay with UACC-257 melanoma of over 100 µM.

Consider `COC1=C2C[C@@H](C)C[C@@H](OC)[C@@H](O)[C@H](C)/C=C(\C)[C@@H](OC(N)=O)[C@H](OC)/C=C\C=C(/C)C(=O)NC(=CC1=O)C2=O`, for which the TGI with NCI/ADR-RES ovarian was 10.7 µM and 32.8 µM and 10.6 µM; in the assay with PC-3 prostate, 8.01 µM and 5.58 µM and 14.9 µM; in the assay on SK-MEL-5 melanoma, 8.59 µM [middle of 4 runs]; with UACC-257 melanoma, 5.05 µM and 12.7 µM and 2.5 µM. Also, the GI50 in the assay on RXF 393 renal is 0.0245 µM.

`COC(=O)CS(=O)c1ccccc1` (configuration not stated): the TGI in the assay on HL-60(TB) leukemia was 37 µM; in the assay with K-562 leukemia, over 100 µM; in the assay with KM12 colon it was over 100 µM; in the assay with MOLT-4 leukemia, 41.4 µM; in the assay with RXF 393 renal it was 49.2 µM; in the assay with SK-MEL-5 melanoma it was over 100 µM. In the assay with UACC-257 melanoma, this compound yielded a TGI of over 100 µM.

`CCC[CH2][Sn]1([CH2]CCC)[O]CC(CN2CCOCC2)[O]1` (configuration not stated): the GI50 with HL-60(TB) leukemia is 1.17 µM; in the assay with K-562 leukemia, 2.43 µM; in the assay with KM12 colon, 10.4 µM; with MOLT-4 leukemia it was 2.22 µM; in the assay on RXF 393 renal it was 1.65 µM; with SK-MEL-5 melanoma it was 5.4 µM. In the assay on UACC-257 melanoma, the GI50 is 4.29 µM. The TGI was found to be 3.62 µM in the assay on HL-60(TB) leukemia; 9.16 µM with K-562 leukemia; 22.5 µM in the assay on KM12 colon; 7.88 µM in the assay on MOLT-4 leukemia; 3.31 µM with RXF 393 renal; 18.2 µM in the assay on SK-MEL-5 melanoma. In addition, in the assay on UACC-257 melanoma, the TGI is 15.1 µM.

For `O=C(O)c1cccc2cccc(C(=O)O)c12.[Hg]`, the GI50 with HL-60(TB) leukemia is 19.3 µM; in the assay with K-562 leukemia, 1.5 µM; in the assay with KM12 colon, 18.3 µM; in the assay with MOLT-4 leukemia it was 19.6 µM; in the assay with RXF 393 renal, 16.8 µM; with SK-MEL-5 melanoma, 14 µM. In addition, the GI50 in the assay with UACC-257 melanoma is 16.7 µM. Moreover, the TGI in the assay on HL-60(TB) leukemia came out at 42.2 µM; with K-562 leukemia it was 15.5 µM; in the assay with KM12 colon it was 32.4 µM; in the assay with MOLT-4 leukemia, 42.7 µM; in the assay on RXF 393 renal, 32.3 µM; in the assay with SK-MEL-5 melanoma it was 27 µM. The compound also returned a TGI with UACC-257 melanoma of 30.8 µM.

With `COc1cc(Nc2nc3cc(C(F)(F)F)ccc3nc2-c2ccccc2)cc(OC)c1OC`, the TGI was over 100 µM in the assay on HL-60(TB) leukemia; over 100 µM in the assay on K-562 leukemia; over 100 µM in the assay on KM12 colon; over 100 µM with MOLT-4 leukemia; 63.8 µM in the assay with RXF 393 renal; over 100 µM in the assay on SK-MEL-5 melanoma. In the assay with UACC-257 melanoma, this compound displayed a TGI of over 100 µM.

As to `NC(=O)CCC(NC(=O)Cc1ccccc1)C(=O)O` (configuration not stated) (tested in a mixture with another compound), the TGI in the assay with HL-60(TB) leukemia is over 8130 µM; in the assay on K-562 leukemia, over 8130 µM; in the assay with KM12 colon, over 8130 µM; in the assay on MOLT-4 leukemia, over 8130 µM; with RXF 393 renal, 2030 µM and > 8130 µM; with SK-MEL-5 melanoma, over 8130 µM.

On to `COc1ccc(NC(=O)CC(=O)N2N=C(N(CCC#N)c3cccc(C)c3)CC2c2ccccc2)cc1` (configuration not stated), for which the TGI in the assay on HL-60(TB) leukemia, in the assay with K-562 leukemia, in the assay on KM12 colon, with MOLT-4 leukemia, in the assay on RXF 393 renal and with SK-MEL-5 melanoma was over 100 µM throughout. In the assay with UACC-257 melanoma, the TGI is over 100 µM.

Turning to `Cc1cc(C)c2nc3nc(C)cc(C)c3c(N)c2c1`, the GI50 is 2.74 µM in the assay with HL-60(TB) leukemia; 3.45 µM in the assay with K-562 leukemia; 5.52 µM in the assay on KM12 colon; 4.7 µM with MOLT-4 leukemia; 6.88 µM in the assay with NCI/ADR-RES ovarian; 6.64 µM in the assay on RXF 393 renal. In addition, the results for the GI50 in the assay on SK-MEL-5 melanoma, with T-47D breast and with UACC-257 melanoma were 3.73 µM, 5.89 µM and 5.71 µM, respectively. The TGI in the assay on HL-60(TB) leukemia was 12.9 µM; with K-562 leukemia, 15.9 µM; in the assay on KM12 colon, 24 µM; in the assay on MOLT-4 leukemia it was 26.6 µM; in the assay on NCI/ADR-RES ovarian it was 36.9 µM; in the assay with RXF 393 renal, 27.5 µM. Moreover, the TGI with SK-MEL-5 melanoma was 14.2 µM; with T-47D breast, 34.2 µM; in the assay on UACC-257 melanoma, 29.8 µM.

With `COc1ccc(-c2cc(-c3cc(C)ccc3O)[nH]c(=O)n2)cc1`, the TGI in the assay on HL-60(TB) leukemia is over 100 µM; in the assay with K-562 leukemia, over 100 µM; with KM12 colon, over 100 µM; with MOLT-4 leukemia, over 100 µM; in the assay on RXF 393 renal, 88.6 µM; with UACC-257 melanoma it was over 100 µM.
